{"source": "patent US20230081390A1", "about": "“INHIBITORS OF RAF KINASES” (Kinnate Biopharma Inc., priority 2019, published 2023)", "key": {"[1]": {"molecular_target": "human RAF1 (Homo sapiens, UniProt P04049)", "sequence (P04049 whole entry)": "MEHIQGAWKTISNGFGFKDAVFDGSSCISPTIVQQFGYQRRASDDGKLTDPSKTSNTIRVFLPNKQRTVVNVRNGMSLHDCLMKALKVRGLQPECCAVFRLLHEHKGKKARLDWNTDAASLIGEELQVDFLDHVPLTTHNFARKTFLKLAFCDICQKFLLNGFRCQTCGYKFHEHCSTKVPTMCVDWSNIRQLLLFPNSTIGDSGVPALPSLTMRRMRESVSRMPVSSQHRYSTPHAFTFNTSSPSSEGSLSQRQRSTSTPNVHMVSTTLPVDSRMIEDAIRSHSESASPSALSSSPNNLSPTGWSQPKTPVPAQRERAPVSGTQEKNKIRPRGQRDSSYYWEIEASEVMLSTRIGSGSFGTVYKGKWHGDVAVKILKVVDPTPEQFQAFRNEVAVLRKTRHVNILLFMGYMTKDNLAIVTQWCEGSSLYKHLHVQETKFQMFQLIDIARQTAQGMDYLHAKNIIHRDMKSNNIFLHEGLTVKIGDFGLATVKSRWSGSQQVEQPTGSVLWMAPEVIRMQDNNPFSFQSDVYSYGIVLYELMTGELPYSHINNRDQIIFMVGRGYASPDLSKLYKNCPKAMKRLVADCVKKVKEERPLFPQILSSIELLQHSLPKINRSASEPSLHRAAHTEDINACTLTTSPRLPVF", "assay": "Protein kinase assay (33P-ATP filter binding), human RAF1, 10-dose IC50", "format": "biochemical", "details": "MEK1 (K97R) substrate 3 micromolar, ATP 10 micromolar, read-out: RAF-1 IC50", "in_short": "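Radiometric filter-binding format: 10 µM ATP, 3 µM MEK1 (K97R) as substrate for human RAF1, 2 hr at room temperature in 20 mM HEPES pH 7.5 with 10 mM MgCl2. Compounds were dispensed acoustically from DMSO. IC50 came from percent kinase activity relative to vehicle over a 10-dose series.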"}, "[2]": {"molecular_target": "human BRAF (Homo sapiens, UniProt P15056)", "sequence (P15056 whole entry)": "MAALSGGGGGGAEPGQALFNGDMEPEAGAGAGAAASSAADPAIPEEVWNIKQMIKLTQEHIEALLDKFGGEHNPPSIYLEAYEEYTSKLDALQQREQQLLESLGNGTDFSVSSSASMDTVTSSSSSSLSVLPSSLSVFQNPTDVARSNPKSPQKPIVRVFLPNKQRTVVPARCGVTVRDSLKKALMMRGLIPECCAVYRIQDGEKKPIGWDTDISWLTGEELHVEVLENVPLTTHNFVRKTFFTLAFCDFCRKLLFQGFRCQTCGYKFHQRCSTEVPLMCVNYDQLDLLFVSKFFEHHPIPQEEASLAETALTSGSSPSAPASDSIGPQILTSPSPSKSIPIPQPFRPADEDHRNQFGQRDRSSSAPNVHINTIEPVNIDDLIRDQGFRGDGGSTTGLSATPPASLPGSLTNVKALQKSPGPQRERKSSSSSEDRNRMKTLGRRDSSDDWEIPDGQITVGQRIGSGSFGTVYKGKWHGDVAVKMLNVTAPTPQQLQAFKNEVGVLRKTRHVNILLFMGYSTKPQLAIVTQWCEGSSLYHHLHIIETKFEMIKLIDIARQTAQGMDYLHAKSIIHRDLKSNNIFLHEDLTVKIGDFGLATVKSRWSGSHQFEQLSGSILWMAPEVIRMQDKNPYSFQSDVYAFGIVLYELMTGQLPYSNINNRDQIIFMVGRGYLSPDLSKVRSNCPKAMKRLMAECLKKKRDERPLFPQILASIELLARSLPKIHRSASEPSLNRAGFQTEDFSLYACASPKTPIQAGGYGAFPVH", "assay": "Protein kinase assay (33P-ATP filter binding), human BRAF, 10-dose IC50", "format": "biochemical", "details": "MEK1 (K97R) substrate 1 micromolar, ATP 25 micromolar, read-out: B-RAF IC50", "protocol": "Protein kinase assay: Assay platform was used to measure kinase/inhibitor interactions as described previously (Anastassiadis et al., 2011). In brief, for each reaction, kinase and substrate were mixed in a buffer containing 20 mM HEPES (pH 7.5), 10 mM MgCl2, 1 mM EGTA, 0.02% Brij35, 0.02 mg/mL BSA, 0.1 mM Na3VO4, 2 mM DTT, and […]. All compounds were solubilized in DMSO. Compounds were then added to each reaction mixture via acoustic dispense using an ECHO 550 nanoliter dispenser. For human RAF1 testing, human MEK1 (K97R) was used as a substrate at a concentration of 3 micromolar, with a final ATP concentration of 10 micromolar. For human BRAF testing, human MEK1 (K97R) was used as a substrate at 1 micromolar concentration, with a final ATP concentration of 25 micromolar. […] After a 20-min incubation, ATP (Sigma-Aldrich, St. Louis, Mo. 63178) and [g33P] ATP (specific activity 10 microCi/microliter) purchased at PerkinElmer (Boston, Mass., 02118 Cat #BLU 003H250UC) were added at a final total concentration of […]. Reactions were carried out at room temperature for 2 hr and spotted onto P81 ion exchange cellulose chromatography paper (Reaction Biology). Filter paper was washed in 0.75% phosphoric acid to remove unincorporated ATP. The percent remaining kinase activity relative to a vehicle-containing (DMSO) kinase reaction was calculated for each kinase/inhibitor pair. IC50 values were calculated using Prism 5 (GraphPad)."}}}
{"molecule": "Cc1cc(F)c(NC(=O)N2CCC(C(F)(F)F)C2)cc1-c1cc(OCCO)nc(N2CCOCC2)c1", "note": "(racemic) [Example 3, (RS)-N-(2-fluoro-5-(2-(2-hydroxyethoxy)-6-morpholinopyridin-4-yl)-4-methylphenyl)-3-(trifluoromethyl)pyrrolidine-1-carboxamide]", "values": [{"measurement": "IC50", "setting": "[1]", "result": "< 10", "unit": "nM"}, {"measurement": "IC50", "setting": "[2]", "result": "10 to 100", "unit": "nM"}]}
{"molecule": "Cc1cc(F)c(NC(=O)N2CCCC(C(F)(F)F)C2)cc1-c1cc(OCCO)nc(N2CCOCC2)c1", "note": "(racemic) [Example 4, (RS)-N-(2-fluoro-5-(2-(2-hydroxyethoxy)-6-morpholinopyridin-4-yl)-4-methylphenyl)-3-(trifluoromethyl)piperidine-1-carboxamide]", "values": [{"measurement": "IC50", "setting": "[1]", "result": "< 10", "unit": "nM"}, {"measurement": "IC50", "setting": "[2]", "result": "10 to 100", "unit": "nM"}]}
{"molecule": "Cc1cc(F)c(NC(=O)N2CCC(C(C)(C)C)C2)cc1-c1cc(OCCO)nc(N2CCOCC2)c1", "note": "(racemic) [Example 5, (RS)-3-(tert-butyl)-N-(2-fluoro-5-(2-(2-hydroxyethoxy)-6-morpholinopyridin-4-yl)-4-methylphenyl)pyrrolidine-1-carboxamide]", "values": [{"measurement": "IC50", "setting": "[1]", "result": "< 10", "unit": "nM"}, {"measurement": "IC50", "setting": "[2]", "result": "10 to 100", "unit": "nM"}]}
{"molecule": "Cc1cc(F)c(NC(=O)N2CCNC(C(F)(F)F)C2)cc1-c1cc(OCCO)nc(N2CCOCC2)c1", "note": "(racemic) [Example 7, (RS)-N-(2-fluoro-5-(2-(2-hydroxyethoxy)-6-morpholinopyridin-4-yl)-4-methylphenyl)-3-(trifluoromethyl)piperazine-1-carboxamide]", "values": [{"measurement": "IC50", "setting": "[1]", "result": "< 10", "unit": "nM"}, {"measurement": "IC50", "setting": "[2]", "result": "100 to 1000", "unit": "nM"}]}
{"molecule": "Cc1cc(F)c(NC(=O)N2CCCC(C(C)(C)C)C2)cc1-c1cc(OCCO)nc(N2CCOCC2)c1", "note": "(racemic) [Example 8, (RS)-3-(tert-butyl)-N-(2-fluoro-5-(2-(2-hydroxyethoxy)-6-morpholinopyridin-4-yl)-4-methylphenyl)piperidine-1-carboxamide]", "values": [{"measurement": "IC50", "setting": "[1]", "result": "< 10", "unit": "nM"}, {"measurement": "IC50", "setting": "[2]", "result": "10 to 100", "unit": "nM"}]}
{"molecule": "Cc1cc(F)c(NC(=O)N2CCOC(C(F)(F)F)C2)cc1-c1cc(OCCO)nc(N2CCOCC2)c1", "note": "(racemic) [Example 10, (RS)-N-(2-fluoro-5-(2-(2-hydroxyethoxy)-6-morpholinopyridin-4-yl)-4-methylphenyl)-2-(trifluoromethyl)morpholine-4-carboxamide]", "values": [{"measurement": "IC50", "setting": "[1]", "result": "< 10", "unit": "nM"}, {"measurement": "IC50", "setting": "[2]", "result": "10 to 100", "unit": "nM"}]}
{"molecule": "Cc1cc(F)c(NC(=O)N2CCNC(C(C)(C)C)C2)cc1-c1cc(OCCO)nc(N2CCOCC2)c1", "note": "(racemic) [Example 11, (RS)-3-(tert-butyl)-N-(2-fluoro-5-(2-(2-hydroxyethoxy)-6-morpholinopyridin-4-yl)-4-methylphenyl)piperazine-1-carboxamide]", "values": [{"measurement": "IC50", "setting": "[1]", "result": "10 to 100", "unit": "nM"}, {"measurement": "IC50", "setting": "[2]", "result": "100 to 1000", "unit": "nM"}]}
{"molecule": "Cc1cc(F)c(NC(=O)N2CC[C@@H](C(F)(F)F)C2)cc1-c1cc(OCCO)nc(N2CCOCC2)c1", "note": "[Example 1, (R)-N-(2-fluoro-5-(2-(2-hydroxyethoxy)-6-morpholinopyridin-4-yl)-4-methylphenyl)-3-(trifluoromethyl)pyrrolidine-1-carboxamide]", "values": [{"measurement": "IC50", "setting": "[1]", "result": "< 10", "unit": "nM"}, {"measurement": "IC50", "setting": "[2]", "result": "10 to 100", "unit": "nM"}]}
{"molecule": "Cc1cc(F)c(NC(=O)N2CC[C@H](C(F)(F)F)C2)cc1-c1cc(OCCO)nc(N2CCOCC2)c1", "note": "[Example 2, (S)-N-(2-fluoro-5-(2-(2-hydroxyethoxy)-6-morpholinopyridin-4-yl)-4-methylphenyl)-3-(trifluoromethyl)pyrrolidine-1-carboxamide]", "values": [{"measurement": "IC50", "setting": "[1]", "result": "< 10", "unit": "nM"}, {"measurement": "IC50", "setting": "[2]", "result": "10 to 100", "unit": "nM"}]}
{"molecule": "Cc1cc(F)c(NC(=O)NCCC(C)(C)C)cc1-c1cc(OCCO)nc(N2CCOCC2)c1", "note": "[Example 6, 1-(3,3-dimethylbutyl)-3-(2-fluoro-5-(2-(2-hydroxyethoxy)-6-morpholinopyridin-4-yl)-4-methylphenyl)urea]", "values": [{"measurement": "IC50", "setting": "[1]", "result": "< 10", "unit": "nM"}, {"measurement": "IC50", "setting": "[2]", "result": "10 to 100", "unit": "nM"}]}
{"molecule": "Cc1cc(F)c(NC(=O)N2CCOC(C(C)(C)C)C2)cc1-c1cc(OCCO)nc(N2CCOCC2)c1", "note": "(centres unmarked) [Example 9, 2-(tert-butyl)-N-(2-fluoro-5-(2-(2-hydroxyethoxy)-6-morpholinopyridin-4-yl)-4-methylphenyl)morpholine-4-carboxamide]", "values": [{"measurement": "IC50", "setting": "[1]", "result": "< 10", "unit": "nM"}, {"measurement": "IC50", "setting": "[2]", "result": "10 to 100", "unit": "nM"}]}
{"molecule": "Cc1ccc(NC(=O)N2CC[C@@H](CC(F)(F)F)C2)cc1-c1cc(OCC2(O)COC2)nc(N2CCOCC2)c1", "note": "[Example 224, (3S)-N-(3-[2-[(3-hydroxyoxetan-3-yl)methoxy]-6-(morpholin-4-yl)pyridin-4-yl]-4-methylphenyl)-3-(2,2,2-trifluoroethyl)pyrrolidine-1-carboxamide]", "values": [{"measurement": "IC50", "setting": "[1]", "result": "< 10", "unit": "nM"}]}
{"molecule": "Cc1ccc(NC(=O)N2CC[C@@H](CC(F)(F)F)C2)cc1-c1cc(OCCC2(O)COC2)nc(N2CCOCC2)c1", "note": "[Example 225, (3S)-N-(3-[2-[2-(3-hydroxyoxetan-3-yl)ethoxy]-6-(morpholin-4-yl)pyridin-4-yl]-4-methylphenyl)-3-(2,2,2-trifluoroethyl)pyrrolidine-1-carboxamide]", "values": [{"measurement": "IC50", "setting": "[1]", "result": "< 10", "unit": "nM"}]}
{"molecule": "Cc1ccc(NC(=O)N2CC[C@@H](CC(F)(F)F)C2)cc1-c1cncc(N2CCOCC2)c1", "note": "[Example 226, (3S)-N-[4-methyl-3-[5-(morpholin-4-yl)pyridin-3-yl]phenyl]-3-(2,2,2-trifluoroethyl)pyrrolidine-1-carboxamide]", "values": [{"measurement": "IC50", "setting": "[1]", "result": "< 10", "unit": "nM"}]}
{"molecule": "Cc1ccc(NC(=O)N2CC[C@@H](CC(F)(F)F)C2)cc1-c1cc(OC[C@@H](C)O)nc(N2CCO[C@@H](C)C2)c1", "note": "[Example 227, (3S)-N-(3-[2-[(2R)-2-hydroxypropoxy]-6-[(2S)-2-methylmorpholin-4-yl]pyridin-4-yl]-4-methylphenyl)-3-(2,2,2-trifluoroethyl)pyrrolidine-1-carboxamide]", "values": [{"measurement": "IC50", "setting": "[1]", "result": "< 10", "unit": "nM"}]}
{"molecule": "Cc1ccc(NC(=O)N2CC[C@@H](CC(F)(F)F)C2)cc1-c1cc(OC[C@@H](C)O)nc(N2CCO[C@H](C)C2)c1", "note": "[Example 228, (S)-N-(3-(2-((R)-2-hydroxypropoxy)-6-((R)-2-methylmorpholino)pyridin-4-yl)-4-methylphenyl)-3-(2,2,2-trifluoroethyl)pyrrolidine-1-carboxamide]", "values": [{"measurement": "IC50", "setting": "[1]", "result": "< 10", "unit": "nM"}]}
{"molecule": "Cc1ccc(NC(=O)N2CC[C@@H](CC(F)(F)F)C2)cc1-c1cc(OC[C@@H](C)O)nc(N2CC3(COC3)C2)c1", "note": "[Example 229, (3S)-N-(3-[2-[(2R)-2-hydroxypropoxy]-6-[2-oxa-6-azaspiro[3.3]heptan-6-yl]pyridin-4-yl]-4-methylphenyl)-3-(2,2,2-trifluoroethyl)pyrrolidine-1-carboxamide]", "values": [{"measurement": "IC50", "setting": "[1]", "result": "< 10", "unit": "nM"}]}
{"molecule": "Cc1ccc(NC(=O)N2CC[C@@H](CC(F)(F)F)C2)cc1-c1cc(OC[C@@H](C)O)nc(N2CCOC3CC32)c1", "note": "(stereo partly drawn) [Example 230, (3S)-N-(3-(2-(2-oxa-5-azabicyclo[4.1.0]heptan-5-yl)-6-((R)-2-hydroxypropoxy)pyridin-4-yl)-4-methylphenyl)-3-(2,2,2-trifluoroethyl)pyrrolidine-1-carboxamide]", "values": [{"measurement": "IC50", "setting": "[1]", "result": "< 10", "unit": "nM"}]}
{"molecule": "Cc1ccc(NC(=O)N2CC[C@@H](CC(F)(F)F)C2)cc1-c1cc(OC2(CO)CC2)nc(N2CCOCC2)c1", "note": "[Example 231, (S)-N-(3-(2-(1-(hydroxymethyl)cyclopropoxy)-6-morpholinopyridin-4-yl)-4-methylphenyl)-3-(2,2,2-trifluoroethyl)pyrrolidine-1-carboxamide]", "values": [{"measurement": "IC50", "setting": "[1]", "result": "< 10", "unit": "nM"}]}
{"molecule": "Cc1ccc(NC(=O)N2CC[C@@H](CC(F)(F)F)C2)cc1-c1cc(OC(C)(C)CO)nc(N2CCOCC2)c1", "note": "[Example 232, (S)-N-(3-(2-((1-hydroxy-2-methylpropan-2-yl)oxy)-6-morpholinopyridin-4-yl)-4-methylphenyl)-3-(2,2,2-trifluoroethyl)pyrrolidine-1-carboxamide]", "values": [{"measurement": "IC50", "setting": "[1]", "result": "< 10", "unit": "nM"}]}
{"molecule": "Cc1ccc(NC(=O)N2CC[C@@H](CC(F)(F)F)C2)cc1-c1cc(O[C@H](C)[C@@H](C)O)nc(N2CCOCC2)c1", "note": "[Example 233, (S)-N-(3-(2-(((2R,3R)-3-hydroxybutan-2-yl)oxy)-6-morpholinopyridin-4-yl)-4-methylphenyl)-3-(2,2,2-trifluoroethyl)pyrrolidine-1-carboxamide]", "values": [{"measurement": "IC50", "setting": "[1]", "result": "< 10", "unit": "nM"}]}
